A value given as a limit tells only on which side of the number the result lay.

Test [1] concerns the target T1, N-formyl peptide receptor 2 (Homo sapiens, UniProt P25090).
T1 sequence (P25090 whole entry): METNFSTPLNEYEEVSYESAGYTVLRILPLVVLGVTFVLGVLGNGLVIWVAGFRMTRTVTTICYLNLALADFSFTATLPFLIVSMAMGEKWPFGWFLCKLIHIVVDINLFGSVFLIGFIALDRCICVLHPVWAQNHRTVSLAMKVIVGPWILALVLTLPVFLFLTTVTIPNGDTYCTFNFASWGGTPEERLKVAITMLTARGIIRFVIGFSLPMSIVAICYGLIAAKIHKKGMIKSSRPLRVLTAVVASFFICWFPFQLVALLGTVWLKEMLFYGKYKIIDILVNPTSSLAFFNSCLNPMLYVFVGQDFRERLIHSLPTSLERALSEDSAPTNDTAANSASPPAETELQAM

Another test addresses T2, fMet-Leu-Phe receptor (Homo sapiens, UniProt P21462).
T2 sequence (P21462 whole entry): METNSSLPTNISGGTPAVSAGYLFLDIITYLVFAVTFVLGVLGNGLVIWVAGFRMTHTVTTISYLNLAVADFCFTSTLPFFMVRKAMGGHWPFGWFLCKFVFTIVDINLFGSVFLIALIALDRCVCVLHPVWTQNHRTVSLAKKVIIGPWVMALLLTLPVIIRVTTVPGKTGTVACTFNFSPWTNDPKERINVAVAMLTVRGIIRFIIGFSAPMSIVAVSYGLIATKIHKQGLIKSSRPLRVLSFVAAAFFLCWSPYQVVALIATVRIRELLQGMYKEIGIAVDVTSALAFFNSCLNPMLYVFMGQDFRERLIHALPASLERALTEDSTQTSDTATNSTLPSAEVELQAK

Broadly, the EC50 is the concentration at which the effect is half-maximal. Turning to `COc1cc(F)c(-n2cc(-c3ccc(F)cc3)nc2NC(=O)c2ccc(OC(F)F)cc2)c(F)c1` [WO2022076764, Example 4], the values for the concentration for a half-maximal effect (EC50) (in test [1]; at fMet-Leu-Phe receptor) were 400 nM and 11 nM, respectively.

Consider `COc1cc(F)c(-n2cc(C(=O)NCc3cc[nH]n3)nc2NC(=O)c2ccc(OC(F)F)cc2)c(F)c1` [WO2022076764, Example 44], for which the concentration for a half-maximal effect (EC50) in test [1] came out at 370 nM; on fMet-Leu-Phe receptor, 48 nM.

Take `COc1ccc(-n2cc(-c3ccc4sccc4c3)nc2NC(=O)c2ccc(OC(F)F)cc2)cc1` [WO2022076764, Example 22]: the half-maximal effective concentration (EC50) in test [1] came out at 140 nM; on fMet-Leu-Phe receptor, 86 nM.

Consider `COc1cc(F)c(-n2cc(-c3ccc4ccccc4c3)nc2NC(=O)c2ccc(OC(F)F)cc2)c(F)c1` [WO2022076764, Example 9], for which the figures for the concentration for a half-maximal effect (EC50) (in test [1]; at fMet-Leu-Phe receptor) were 460 nM and 220 nM, respectively.

As to `COc1cc(F)c(-n2cc(C3CCOCC3)nc2NC(=O)c2ccc(OC(F)F)cc2)c(F)c1` [WO2022076764, Example 41], the EC50 was found to be 230 nM in test [1] and 26 nM at fMet-Leu-Phe receptor.

In the case of `COc1cc(F)c(-n2cc(-c3ccc(F)c(F)c3)nc2NC(=O)c2ccc(OC(F)F)cc2)c(F)c1` [WO2022076764, Example 36], the EC50 in test [1] was 320 nM; at fMet-Leu-Phe receptor, 31 nM.

For the compound `CCc1cn(-c2c(F)cc(OC)cc2F)c(NC(=O)c2ccc(OC(F)F)cc2)n1` [WO2022076764, Example 39], the EC50 in test [1] amounted to 1000 nM; on fMet-Leu-Phe receptor, 21 nM.

In the case of `COc1cc(F)c(-n2c(NC(=O)c3ccc(OC(F)F)cc3)nc(-c3ccccc3)c2C)c(F)c1` [WO2022076764, Example 8], the EC50 in test [1] was found to be 230 nM; on fMet-Leu-Phe receptor it was 8 nM.

With `COc1cc(F)c(-n2cc(-c3ccccc3F)nc2NC(=O)c2ccc(OC(F)F)cc2)c(F)c1` [WO2022076764, Example 33], the EC50 came to 940 nM in test [1] and 39 nM on fMet-Leu-Phe receptor.

`COc1cc(F)c(-n2cc(C(=O)N3CCC[C@H]3CO)nc2NC(=O)c2ccc(OC(F)F)cc2)c(F)c1` [WO2022076764, Example 50]: the EC50 is greater than 10000 nM in test [1] and 77 nM on fMet-Leu-Phe receptor.

For `COc1cc(F)c(-n2cc(C3CC3)nc2NC(=O)c2ccc(OC(F)F)cc2)c(F)c1` [WO2022076764, Example 37], the EC50 in test [1] stood at 800 nM; on fMet-Leu-Phe receptor it was 16 nM.

Regarding `COc1cc(F)c(-n2cc(-c3ccccc3F)nc2NC(=O)c2ccc(OC(F)F)cc2)c(F)c1` [WO2022076764, Example 25], the results for the 50% effective concentration (EC50) (in test [1]; on fMet-Leu-Phe receptor) were 47 nM and 6 nM, respectively.

In the case of `COc1cc(F)c(-n2cc(-c3ccn[nH]3)nc2NC(=O)c2ccc(OC(F)F)cc2)c(F)c1` [WO2022076764, Example 80], the EC50 was found to be 500 nM in test [1] and 59 nM at fMet-Leu-Phe receptor.

`COc1ccc(-n2cc(-c3ccc(F)cc3F)nc2NC(=O)c2ccc(OC(F)F)cc2)cc1` [WO2022076764, Example 21]: the EC50 was 76 nM in test [1] and 29 nM at fMet-Leu-Phe receptor.

For the compound `COc1ccc(-n2cc(-c3nccs3)nc2NC(=O)c2ccc(OC(F)F)cc2)cc1` [WO2022076764, Example 24], the concentration giving a half-maximal response (EC50) in test [1] was found to be 110 nM; on fMet-Leu-Phe receptor it was 9 nM.

Regarding `COc1cc(F)c(-n2cc(-c3ccccc3)nc2NC(=O)c2ccc(OC(F)F)cc2)c(F)c1` [WO2022076764, Example 1], the EC50 came out at 200 nM in test [1] and 4 nM at fMet-Leu-Phe receptor.

In the case of `COc1ccc(-n2cc(C(=O)N3CCNCC3)nc2NC(=O)c2ccc(OC(F)F)cc2)cc1` [WO2022076764, Example 45], the EC50 in test [1] came out at 710 nM; on fMet-Leu-Phe receptor, 14 nM.

As for `COc1cc(F)c(-n2cc(C(C)C)nc2NC(=O)c2ccc(OC(F)F)cc2)c(F)c1` [WO2022076764, Example 70], the EC50 amounted to 970 nM in test [1] and 31 nM on fMet-Leu-Phe receptor.

For `COc1cc(F)c(-n2cc(C(=O)NCC3CCC(O)CC3)nc2NC(=O)c2ccc(OC(F)F)cc2)c(F)c1` (stereo not given) [WO2022076764, Example 49], the values for the half-maximal effective concentration (EC50) (in test [1]; at fMet-Leu-Phe receptor) were 750 nM and 90 nM, respectively.

As to `COc1cc(F)c(-n2cc(C(=O)N3CCC(CO)CC3)nc2NC(=O)c2ccc(OC(F)F)cc2)c(F)c1` [WO2022076764, Example 69], the half-maximal effective concentration (EC50) in test [1] was 2990 nM; on fMet-Leu-Phe receptor, 86 nM.

`COc1cc(F)c(-n2cc(Cc3ccccn3)nc2NC(=O)c2ccc(OC(F)F)cc2)c(F)c1` [WO2022076764, Example 78]: the figures for the EC50 (in test [1]; on fMet-Leu-Phe receptor) were 870 nM and 56 nM, respectively.

In the case of `COc1ccc(-n2cc(-c3ccc4c(c3)CCO4)nc2NC(=O)c2ccc(OC(F)F)cc2)cc1` [WO2022076764, Example 19], the EC50 in test [1] turned out to be 93 nM; at fMet-Leu-Phe receptor, 28 nM.

With `COc1cc(F)c(-n2cc(C3CCN(C(=O)CCO)CC3)nc2NC(=O)c2ccc(OC(F)F)cc2)c(F)c1` [WO2022076764, Example 68], the EC50 in test [1] is 110 nM; at fMet-Leu-Phe receptor, 45 nM.

Consider `COc1cc(F)c(-n2cc(C(F)(F)C(F)(F)F)nc2NC(=O)c2ccc(OC(F)F)cc2)c(F)c1` [WO2022076764, Example 42], for which the results for the 50% effective concentration (EC50) (in test [1]; on fMet-Leu-Phe receptor) were 57 nM and 48 nM, respectively.

For the compound `COc1ccc(-n2cc(-c3ccccc3)nc2NC(=O)c2ccc(OC(F)F)cc2)cc1` [WO2022076764, Example 2], the EC50 in test [1] amounted to 38 nM; at fMet-Leu-Phe receptor it was 3 nM.

`COc1cccc(-c2cn(-c3c(F)cc(OC)cc3F)c(NC(=O)c3ccc(OC(F)F)cc3)n2)c1` [WO2022076764, Example 3]: the EC50 amounted to 88 nM in test [1] and 8 nM at fMet-Leu-Phe receptor.

As for `COc1ccc(-n2cc(-c3ccnc(Cl)c3)nc2NC(=O)c2ccc(OC(F)F)cc2)cc1` [WO2022076764, Example 20], the values for the EC50 (in test [1]; on fMet-Leu-Phe receptor) were 19 nM and 5 nM, respectively.

Turning to `COc1cc(F)c(-n2cc(C(=O)NCCO)nc2NC(=O)c2ccc(OC(F)F)cc2)c(F)c1` [WO2022076764, Example 53], the values for the concentration giving a half-maximal response (EC50) (in test [1]; on fMet-Leu-Phe receptor) were 4100 nM and 130 nM, respectively.

As to `COc1cc(F)c(-n2cc(C(=O)N3CCOCC3)nc2NC(=O)c2ccc(OC(F)F)cc2)c(F)c1` [WO2022076764, Example 54], the figures for the concentration giving a half-maximal response (EC50) (in test [1]; at fMet-Leu-Phe receptor) were greater than 10000 nM and 320 nM, respectively.

`COc1cc(F)c(-n2cc(C3CCN(C(=O)CCC(N)=O)CC3)nc2NC(=O)c2ccc(OC(F)F)cc2)c(F)c1` [WO2022076764, Example 67]: the EC50 in test [1] is 83 nM; at fMet-Leu-Phe receptor, 54 nM.

Take `COc1cc(F)c(-n2cc(-c3cccc(F)c3)nc2NC(=O)c2ccc(OC(F)F)cc2)c(F)c1` [WO2022076764, Example 10]: the values for the EC50 (in test [1]; on fMet-Leu-Phe receptor) were 200 nM and 7 nM, respectively.

Turning to `COc1cc(F)c(-n2cc(-c3nccs3)nc2NC(=O)c2ccc(OC(F)F)cc2)c(F)c1` [WO2022076764, Example 40], the EC50 in test [1] came out at 1000 nM; at fMet-Leu-Phe receptor, 11 nM.

Take `COc1cc(F)c(-n2cc(C(=O)N3CCC(O)CC3)nc2NC(=O)c2ccc(OC(F)F)cc2)c(F)c1` [WO2022076764, Example 52]: the EC50 in test [1] was greater than 10000 nM; at fMet-Leu-Phe receptor, 63 nM.

In the case of `CCNC(=O)N1CCC(c2cn(-c3c(F)cc(OC)cc3F)c(NC(=O)c3ccc(OC(F)F)cc3)n2)CC1` [WO2022076764, Example 66], the EC50 was 540 nM in test [1] and 28 nM at fMet-Leu-Phe receptor.

For `COc1cc(F)c(-n2cc(-c3ccc(Cl)cc3)nc2NC(=O)c2ccc(OC(F)F)cc2)c(F)c1` [WO2022076764, Example 11], the 50% effective concentration (EC50) in test [1] was found to be 140 nM; on fMet-Leu-Phe receptor, 24 nM.
